This is an account of results in patent US6841682B2, “Heterocycles useful in the treatment of benign prostatic hyperplasia” (Janseen Pharmaceutica N.V., priority 1997, dated 2005).

One test concerns the target T1, α1a-AR (Homo sapiens, UniProt P35348).
T1 construct: expressed in transfected cells; host or cells: COS cells (pcDNA3 vector, DEAE-dextran transient transfection); membrane preparation
T1 sequence (P35348 1-466): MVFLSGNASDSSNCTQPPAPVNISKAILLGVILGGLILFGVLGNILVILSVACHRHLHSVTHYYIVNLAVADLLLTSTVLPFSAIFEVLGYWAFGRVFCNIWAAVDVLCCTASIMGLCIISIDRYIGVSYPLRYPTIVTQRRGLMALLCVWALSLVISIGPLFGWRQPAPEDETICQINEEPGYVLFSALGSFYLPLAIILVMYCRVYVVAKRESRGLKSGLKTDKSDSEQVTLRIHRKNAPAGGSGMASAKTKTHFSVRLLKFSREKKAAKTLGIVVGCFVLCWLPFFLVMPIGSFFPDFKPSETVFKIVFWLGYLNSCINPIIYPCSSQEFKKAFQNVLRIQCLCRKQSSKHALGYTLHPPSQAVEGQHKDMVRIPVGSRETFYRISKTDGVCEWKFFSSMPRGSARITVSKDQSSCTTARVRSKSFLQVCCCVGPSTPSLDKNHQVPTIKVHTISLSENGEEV
Nature of the test: radioligand ([125I]-HEAT) receptor binding assay, COS cell membranes, α1a-AR. The note with it: Tables A-J; [125I]-HEAT 50 pM, COS membranes; read-out: α1a IC50. The source says:
(§1) The first assay tested the ability of compounds of Formula I to bind to membrane bound receptors α1a-AR, α1b-AR and α1d-AR.
(§2) The DNA sequences of the three cloned human α1-AR subtypes have been published. […] We used published DNA sequence information to design-primers for use in RT-PCR amplification of each subtype to obtain cloned cDNAs. Human poly A+ RNA was obtained from commercially available sources and included hippocampus and prostate samples, sources which have been cited in the literature. For the primary screen a radio ligand binding assay was used which employed membrane preparations from cells expressing the individual cloned receptor cDNAs.
(§3) Each α1 receptor subtype was cloned from poly A+ RNA by the standard method of reverse transcription-polymerase chain reaction (RT-PCR). The following sources of polyA+ RNA were used for the cloning of the al receptor subtypes: α1a-AR, human hippocampus and prostate, α1b-AR, human hippocampus, α1d-AR, human hippocampus. The resulting cDNAs were cloned into the pcDNA3 mammalian expression vector (Invitrogen Corp., San Diego Calif.). Each DNA was sequenced for verification and to detect any possible mutations introduced during the amplification process. Any deviation in sequence from the published consensus for each receptor subtype was corrected by site-directed mutagenesis.
(§4) The three α1-AR subtypes (a, b, d) were transfected into COS cells using a standard DEAE-dextran procedure with a chloroquine shock. In this procedure, each tissue culture dish (100 mm) was inoculated with 3.5×10^6 cells and transfected with 10 μg of DNA. Approximately 72 hours post-transfection, the cells were harvested and COS membranes were prepared. Transfected COS cells from 25 plates (100 mm) were scraped and suspended in 15 mL of TE buffer (50 mM Tris-HCl, 5 mM EDTA, pH7.4). The suspension was disrupted with a homogenizer. It was then centrifuged at 1000×g for 10 minutes at 4° C. The supernatant was centrifuged at 34,500×g for 20 minutes at 4° C. The pellet was resuspended in 5 mL TNE buffer (50 mM Tris-HCl, 5 mM EDTA, 150 mM NaCl, pH7.4). The resulting membrane preparation was aliquoted and stored at −70° C. The protein concentration was determined following membrane solubilization with TritonX-100.
The ability of each compound to bind to each of the α1-AR subtypes was assessed in a receptor binding assay. […] The plate was incubated for 1 hour at room temperature and the reaction mixtures were filtered through a Packard GF/C Unifilter filter plate. The filter plate was dried for 1 hour in a vacuum oven. Scintillation fluid ([…]) was added to each well, and the filter plate was counted in a Packard Topcount scintillation counter. Data was analyzed using GraphPad Prism software.

The next test concerns the target T2, α1b-AR (Homo sapiens, UniProt P35368).
T2 construct: expressed in transfected cells; host or cells: COS cells (pcDNA3 vector, DEAE-dextran transient transfection); membrane preparation
T2 sequence (P35368 1-520): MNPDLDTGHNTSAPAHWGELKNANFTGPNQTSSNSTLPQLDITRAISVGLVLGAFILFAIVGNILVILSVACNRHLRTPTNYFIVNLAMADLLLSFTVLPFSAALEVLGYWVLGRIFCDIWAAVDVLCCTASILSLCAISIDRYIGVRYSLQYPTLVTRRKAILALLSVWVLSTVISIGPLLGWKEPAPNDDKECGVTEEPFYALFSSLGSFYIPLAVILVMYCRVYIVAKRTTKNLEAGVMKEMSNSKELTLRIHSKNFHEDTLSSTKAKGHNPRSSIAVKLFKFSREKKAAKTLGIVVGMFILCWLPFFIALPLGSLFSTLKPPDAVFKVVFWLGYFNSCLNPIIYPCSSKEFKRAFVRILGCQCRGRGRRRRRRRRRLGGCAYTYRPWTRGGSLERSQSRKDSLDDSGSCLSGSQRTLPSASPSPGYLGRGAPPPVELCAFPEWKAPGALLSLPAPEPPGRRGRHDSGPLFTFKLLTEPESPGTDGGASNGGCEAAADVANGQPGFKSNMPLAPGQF
Nature of the test: radioligand ([125I]-HEAT) receptor binding assay, COS cell membranes, α1b-AR. The conditions noted are these: Tables A-J; [125I]-HEAT 50 pM, COS membranes; read-out: α1b IC50.
Text: as §1
as §2, with “receptor cDNAs. Radiolabeled ligands with binding activity on all three subtypes (non-selective) are commercially available ([125I]-HEAT, [3H]-prazosin).” for “receptor cDNAs.”
as §3, §4
(§5) The ability of each compound to bind to each of the α1-AR subtypes was assessed in a receptor binding assay. [125I]-HEAT, a non-selective α1-AR ligand, was used as the radiolabeled ligand. Each well of a 96-well plate received: 140 μL TNE, 25 μL [125I]-HEAT diluted in TNE (50,000 cpm; final concentration 50 pM), 10 μL test compound diluted in DMSO (final concentration 1 pM-10 μM), […] COS cell membrane preparation expressing one of the three α1-AR subtypes (0.05-0.2 mg membrane protein). The plate was incubated for 1 hour at room temperature and the reaction mixtures were filtered through a Packard GF/C Unifilter filter plate. The filter plate was dried for 1 hour in a vacuum oven. Scintillation fluid ([…]) was added to each well, and the filter plate was counted in a Packard Topcount scintillation counter. Data was analyzed using GraphPad Prism software.
(§6) Tables A-J list the IC50 values expressed in nanomolar concentration for select compounds of the invention in all receptor subtypes.

The target in the next test is T3, α1d-AR (Homo sapiens, UniProt P25100).
T3 construct: expressed in transfected cells; host or cells: COS cells (pcDNA3 vector, DEAE-dextran transient transfection); membrane preparation
T3 sequence (P25100 1-572): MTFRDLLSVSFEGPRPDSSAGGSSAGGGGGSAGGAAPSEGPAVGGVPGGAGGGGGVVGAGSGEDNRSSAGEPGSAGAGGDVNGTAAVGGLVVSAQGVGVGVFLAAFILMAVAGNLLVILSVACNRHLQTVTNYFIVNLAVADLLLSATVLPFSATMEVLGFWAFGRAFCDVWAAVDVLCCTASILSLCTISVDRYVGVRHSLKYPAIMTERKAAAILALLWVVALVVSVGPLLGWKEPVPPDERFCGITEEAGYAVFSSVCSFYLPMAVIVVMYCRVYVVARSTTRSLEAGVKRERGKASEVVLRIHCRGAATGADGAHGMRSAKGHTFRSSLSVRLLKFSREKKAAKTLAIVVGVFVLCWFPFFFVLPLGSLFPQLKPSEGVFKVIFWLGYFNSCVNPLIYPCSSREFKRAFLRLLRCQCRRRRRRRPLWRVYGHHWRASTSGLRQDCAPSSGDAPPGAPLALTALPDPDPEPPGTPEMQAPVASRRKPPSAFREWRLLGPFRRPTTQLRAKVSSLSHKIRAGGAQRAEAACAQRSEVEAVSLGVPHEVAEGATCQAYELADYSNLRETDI
Nature of the test: radioligand ([125I]-HEAT) receptor binding assay, COS cell membranes, α1d-AR. The note with it: Tables A-J, [125I]-HEAT 50 pM.
Text: as §1
as §2, with “receptor cDNAs. Radiolabeled ligands with binding activity on all three subtypes (non-selective) are commercially available ([125I]-HEAT, [3H]-prazosin).” for “receptor cDNAs.”
as §3, §4, §5, §6

pIC50: −log10 of the molar value.

Broadly, the pIC50 is −log10 of the IC50, conventionally taken in molar units.

For `CC(C)Oc1ccccc1N1CCN(Cc2cc(CN3CCCCC3=O)nc(N)n2)CC1` [Compound 4], the pIC50 is 7.10 at α1a-AR, < 5.00 on α1b-AR and < 5.00 at α1d-AR.

Regarding `CC(C)Oc1ccccc1N1CCN(Cc2cc(CN3CCCCC3=O)on2)CC1` [Compound 8], the results for the pIC50 at α1a-AR and on α1d-AR were 8.42 and 6.57, respectively.

For `CC(C)Oc1ccccc1N1CCN(CC2=NOC(CN3CCCCC3=O)C2)CC1` (centres unmarked) [Compound 9], the pIC50 was 7.05 on α1a-AR, < 5.00 on α1b-AR and 5.82 on α1d-AR.

Turning to `CC(C)Oc1ccccc1N1CCN(Cc2nc(CN3CCCCC3=O)co2)CC1` [Compound 12], the figures for the pIC50 at α1a-AR, at α1b-AR and at α1d-AR were 5.33, < 5.00 and < 5.00, respectively.

Take `CC(C)Oc1ccccc1N1CCN(Cc2ncc(CN3CCCC3=O)s2)CC1` [Compound 17]: the pIC50 on α1a-AR was 8.60; on α1b-AR, 5.46; at α1d-AR, 7.10.

Consider `COc1ccccc1N1CCN(Cc2ccc(CN3CCCC3=O)s2)CC1` [Compound 23], for which the results for the pIC50 on α1a-AR, at α1b-AR and on α1d-AR were 7.10, < 5.00 and 7.34, respectively.

As for `CC(C)Oc1ccccc1N1CCN(Cc2cc(CN3CCCC3=O)no2)CC1` [Compound 28], the pIC50 at α1a-AR was 8.66; at α1b-AR, < 5.22; at α1d-AR, 6.88.

Turning to `CC(C)Oc1ccccc1N1CCN(Cc2cc(CN3CCCC3=O)cs2)CC1` [Compound 32], the pIC50 at α1a-AR is 9.08; on α1b-AR, 6.21; on α1d-AR it was 7.62.

With `O=C1CCCN1Cc1cc(CN2CCN(c3ccccc3Oc3ccccc3)CC2)on1` [compound 38], the pIC50 at α1a-AR is 7.52; on α1b-AR it was 5.36; on α1d-AR, 6.47.

As for `O=C1CCCCCN1Cc1cc(CN2CCN(c3ccccc3Oc3ccccc3)CC2)on1` [compound 39], the pIC50 is 6.76 at α1a-AR, < 5.00 on α1b-AR and 6.24 at α1d-AR.

As to `COc1ccccc1N1CCN(Cc2cccc(CN3CCC3=O)n2)CC1` [compound 41], the pIC50 at α1a-AR is 5.12; at α1b-AR, 5.50; on α1d-AR it was 5.77.

Consider `COc1ccccc1N1CCN(Cc2cccc(CN3CCCCCC3=O)n2)CC1` [compound 42], for which the values for the pIC50 on α1a-AR, on α1b-AR and on α1d-AR were 5.07, 5.85 and 6.28, respectively.

In the case of `COc1ccccc1N1CCN(Cc2cccc(CN3CCCC3=O)n2)CC1` [compound 43], the figures for the pIC50 on α1a-AR, at α1b-AR and on α1d-AR were 5.11, 5.58 and 5.81, respectively.

In the case of `COc1ccccc1N1CCN(Cc2cccc(CN3CCCCCCC3=O)n2)CC1` [compound 44], the pIC50 at α1a-AR was 5.69; on α1b-AR it was 5.40; at α1d-AR it was 6.24.

As for `CC(C)Oc1ccccc1N1CCN(Cc2cccc(CN3C(=O)CCCC3=O)n2)CC1` [compound 45], the pIC50 at α1a-AR is 7.01; on α1b-AR, 7.02; at α1d-AR, 6.71.

For `CC(C)Oc1ccccc1N1CCN(Cc2cccc(CN3C(=O)CCC3=O)n2)CC1` [compound 46], the pIC50 on α1a-AR is 7.16; on α1b-AR, 5.76; on α1d-AR, 6.76.

For `CC(C)Oc1ccccc1N1CCN(Cc2cccc(CN3C(=O)CCCC3c3ccccc3)n2)CC1` (centres unmarked) [compound 47], the pIC50 at α1a-AR was 6.83; at α1b-AR, 5.48; at α1d-AR it was 6.54.

In the case of `COc1ccccc1N1CCN(Cc2ccc(CN3CCCCC3=O)s2)CC1` [compound 48], the pIC50 on α1a-AR was 7.54; on α1b-AR, < 5.00; on α1d-AR, 7.59.

For the compound `COc1ccccc1N1CCN(Cc2ccc(CN3CCCCCC3=O)s2)CC1` [compound 49], the pIC50 at α1a-AR is 7.43; on α1b-AR it was < 5.00; at α1d-AR, 7.62.

As to `COc1ccccc1N1CCN(Cc2ccc(CN3CCCCC3CO)s2)CC1` (centres unmarked) [compound 50], the pIC50 at α1a-AR is 6.08; at α1b-AR, < 5.29; on α1d-AR it was 6.58.

Consider `COc1ccccc1N1CCN(Cc2cccc(CN3CCCCC3=O)n2)CC1` [compound 54], for which the pIC50 is 5.76 on α1a-AR, 5.52 on α1b-AR and 6.30 on α1d-AR.

`CC(C)Oc1ccccc1N1CCN(Cc2cc(CN3CCCCC3=O)cs2)CC1` [compound 55]: the pIC50 at α1a-AR was 9.00; at α1b-AR, 6.11; at α1d-AR, 6.73.

For the compound `CC(C)Oc1ccccc1N1CCN(Cc2cc(CN3CCCCCC3=O)cs2)CC1` [compound 56], the pIC50 on α1a-AR is 8.43; on α1b-AR, 5.91; at α1d-AR, 7.02.
